Experimental data: PMC7970697, “Inhibition and Induction by Poziotinib of Different Rat Cytochrome P450 Enzymes In Vivo and in an In Vitro Cocktail Method” (Frontiers in Pharmacology, 2021)
Read-outs that look alike come from different tables or passages of the source.

Experiments:
[1] = biological target: T1, cyp2e1 (Rattus norvegicus, UniProt P05182); assay: Cocktail method IC50 in rat liver microsomes, chlorzoxazone probe; assay type: in vitro ADME
T1 construct: To this cocktail, 1 mg/ml of RLMs; from tissue; host or cells: rat liver microsomes, prepared in-house
Description: (§1) The cocktail method was employed to analyze the effects of poziotinib on cyp1a2, cyp2b1, cyp2c11, cyp2d1, cyp2e1, and cyp3a1/2. […] Then half-maximal inhibitory concentration (IC50) of poziotinib was determined with all of the CYPs. […]. To this cocktail, 1 mg/ml of RLMs, 100 mM potassium phosphate buffer (pH 7.4), poziotinib (1, 2.5, 5, 10, 25, 50, or 100 μM) were added to obtain a final volume of 200 μL. After pre-incubation of this mixture for 5 min in a shaking water bath at 37°C, 1 mM NADPH was added to start the reaction. The reactions were allowed to proceed for 30 min, after which 200 μL of acetonitrile and 20 μL of IS were added to terminate the reactions. The mixtures were vortexed for 30 s and centrifuged again at 13,000 rpm for 5 min.

[2] = system: cyp2e1; assay: Effect of poziotinib on cyp2e1 activity in rats (chlorzoxazone pharmacokinetics); assay type: in vivo, Sprague-Dawley rats; details: poziotinib 5 mg/kg oral 7 days, chlorzoxazone probe
Description: (§3) Twelve male Sprague-Dawley rats (230 ± 20 g) were randomly divided into treated and control groups, with 6 in each group. […] The supernatant was mixed with 200 μL of acetonitrile and 20 μL of 0.5 μg/ml diazepam (IS), vortexed for 30 s, centrifuged at 13,000 rpm for 5 min, and the supernatant was injected into the UPLC-MS/MS system for analysis.
(§4) Pharmacokinetic parameters were calculated using DAS software (Version 3.2.8). SPSS software (version 16.0; SPSS Inc., Chicago, IL, United States) was used to analyze the significance of differences between the main pharmacokinetic parameters. p < 0.05 was considered statistically significant. GraphPad (version 8.0; GraphPad Software Inc., San Diego, CA, United States) was used to calculate IC50 and plot the plasma concentration-time curves and inhibition plots (type of inhibition, time- and concentration-dependence).

[3] = system: CYP3A4 and CYP2D6; set-up: method as in Kim et al., 2013; details: LC-MS/MS; ref Kim et al., 2013; cited from earlier work
[4] = biological target: T2, cyp2b1 (Rattus norvegicus, UniProt P00176); assay: Cocktail method IC50 in rat liver microsomes, bupropion probe; assay type: in vitro ADME; set-up: from tissue; host or cells: rat liver microsomes, prepared in-house
T2 sequence (P00176 1-491): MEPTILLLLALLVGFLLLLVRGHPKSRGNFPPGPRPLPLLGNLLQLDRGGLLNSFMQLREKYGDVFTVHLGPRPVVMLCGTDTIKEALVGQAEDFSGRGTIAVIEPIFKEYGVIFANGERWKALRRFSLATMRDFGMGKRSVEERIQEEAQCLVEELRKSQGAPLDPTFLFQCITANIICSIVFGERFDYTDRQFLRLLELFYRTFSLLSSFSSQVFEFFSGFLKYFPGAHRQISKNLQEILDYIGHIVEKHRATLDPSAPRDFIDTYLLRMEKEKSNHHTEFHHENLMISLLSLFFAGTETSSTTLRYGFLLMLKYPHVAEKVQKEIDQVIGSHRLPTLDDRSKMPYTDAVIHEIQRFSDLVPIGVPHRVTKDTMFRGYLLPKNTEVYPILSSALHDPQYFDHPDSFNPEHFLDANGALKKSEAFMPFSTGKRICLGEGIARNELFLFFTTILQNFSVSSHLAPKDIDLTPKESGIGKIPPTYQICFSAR
Description: as §1

[5] = biological target: T3, cyp2c11 (Rattus norvegicus, UniProt P08683); assay: Cocktail method IC50 in rat liver microsomes, tolbutamide probe; assay type: in vitro ADME; set-up: from tissue; host or cells: rat liver microsomes, prepared in-house
T3 sequence (P08683 1-500): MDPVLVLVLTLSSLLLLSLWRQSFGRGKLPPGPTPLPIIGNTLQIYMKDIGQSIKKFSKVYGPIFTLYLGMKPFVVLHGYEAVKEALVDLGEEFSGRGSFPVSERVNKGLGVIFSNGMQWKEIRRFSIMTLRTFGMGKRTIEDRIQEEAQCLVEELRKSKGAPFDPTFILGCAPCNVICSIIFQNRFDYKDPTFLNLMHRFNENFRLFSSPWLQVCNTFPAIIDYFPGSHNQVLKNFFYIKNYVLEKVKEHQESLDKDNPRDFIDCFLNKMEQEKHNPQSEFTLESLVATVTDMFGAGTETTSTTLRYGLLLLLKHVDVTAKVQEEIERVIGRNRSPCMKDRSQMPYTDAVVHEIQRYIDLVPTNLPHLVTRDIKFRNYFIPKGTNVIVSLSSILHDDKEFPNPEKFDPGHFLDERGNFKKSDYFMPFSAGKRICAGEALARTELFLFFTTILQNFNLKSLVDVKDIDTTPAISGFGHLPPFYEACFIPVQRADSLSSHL
Description: as §1

[6] = biological target: T2, cyp2b1; assay: Mechanism of inhibition (Lineweaver-Burk plots), bupropion in RLMs; assay type: in vitro ADME; set-up: from tissue; host or cells: rat liver microsomes, prepared in-house
Description: (§2) To elucidate the mechanism of inhibition of cyp2b1 and 2c11 by poziotinib, we examined the interaction of different concentrations of poziotinib with bupropion and tolbutamide, respectively. Poziotinib was preincubated with 1 mg/ml of RLMs and probe substrate in a 37°C shaking water bath for 5 min, following which NADPH was added and incubated for 30 min. The concentrations of poziotinib were 0, 2, 4, 8 and 16 μM for 2b1, 0, 5, 10 20 and 40 μM for 2c11. The concentrations of bupropion were 5, 10, 20, and 40 μM, and the concentrations of tolbutamide were 25, 50, 100, and 200 μM. Poziotinib was incubated with different concentrations of the probe substrates in triplicate. The reactions were carried out, stopped, and processed as described in 2.3. Lineweaver-Burk plots were graphed.

[7] = biological target: T3, cyp2c11; assay: Mechanism of inhibition (Lineweaver-Burk plots), tolbutamide in RLMs; assay type: in vitro ADME; set-up: from tissue; host or cells: rat liver microsomes, prepared in-house
Description: as §2

[8] = biological target: T2, cyp2b1; assay: Effect of poziotinib on cyp2b1 activity in rats (bupropion pharmacokinetics); assay type: in vivo, Sprague-Dawley rats; set-up: from tissue; host or cells: living male Sprague-Dawley rats (whole animal); details: poziotinib 5 mg/kg oral 7 days, bupropion probe
Description: as §3, §4

T1 sequence (P05182 whole entry): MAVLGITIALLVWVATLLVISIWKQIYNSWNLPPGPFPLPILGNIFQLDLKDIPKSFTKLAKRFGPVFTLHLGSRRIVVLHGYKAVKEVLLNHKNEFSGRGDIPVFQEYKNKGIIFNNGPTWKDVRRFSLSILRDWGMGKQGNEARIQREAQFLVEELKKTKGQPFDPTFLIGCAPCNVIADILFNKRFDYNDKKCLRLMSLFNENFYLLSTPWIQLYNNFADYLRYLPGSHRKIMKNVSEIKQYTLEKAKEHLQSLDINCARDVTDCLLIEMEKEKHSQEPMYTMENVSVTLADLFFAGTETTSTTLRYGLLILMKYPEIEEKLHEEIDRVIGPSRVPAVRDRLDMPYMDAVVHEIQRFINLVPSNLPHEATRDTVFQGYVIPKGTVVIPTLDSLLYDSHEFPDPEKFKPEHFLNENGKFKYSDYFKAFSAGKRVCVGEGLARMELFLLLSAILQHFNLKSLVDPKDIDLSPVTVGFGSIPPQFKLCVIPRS

C=CC(=O)N1CCC(Oc2cc3c(Nc4ccc(Cl)c(Cl)c4F)ncnc3cc2OC)CC1 [Poziotinib]
inhibitory effect on cyp2e1 (in words) [1]: did not show any obvious inhibitory effect
IC50 ([1]; 40 μM chlorzoxazone, cocktail, 30 min): 156 µM
inhibitory effect on cyp2e1 (in words) ([1]; listed as poziotinib): not obvious
effect on cyp2e1 activity in rats [2]: induced cyp2e1 activity
enzymes producing main metabolites M1 (dihydroxylation) and M2 (demethylation) [3]: mainly produced by CYP3A4 and CYP2D6 activity
IC50 ([4]; 20 μM bupropion, cocktail, 30 min, read-out: IC50): 8.79 µM
IC50 ([4]; classes after Jin et al., 2015, read-out: inhibition class by IC50, CYP2B1): 1 to 10 µM
inhibitory effect on cyp2c11 (in words) [5]: strong
IC50 ([5]; 100 μM tolbutamide, cocktail, 30 min, read-out: IC50): 20.2 µM
IC50 ([5]; classes after Jin et al., 2015, read-out: inhibition class by IC50, CYP2C11): > 10 µM
type of inhibition of cyp2b1 ([6]; Lineweaver-Burk plots): competitive
Ki ([6]; rat liver microsomes, bupropion 5-40 μM, poziotinib 0-16 μM, secondary plot): 16.2 µM
type of inhibition of cyp2c11 ([7]; Lineweaver-Burk plots): competitive
Ki ([7]; rat liver microsomes, tolbutamide 25-200 μM, poziotinib 0-40 μM, secondary plot): 17.7 µM
effect on cyp2b1 activity in rats [8]: inhibitory effect
